# Results: PMC7249060, “The Antiproliferative Effects of Flavonoid MAO Inhibitors on Prostate Cancer Cells” (Molecules, 2020)
# Assays:
# hMAO-A = target: T1, hMAO-A (Homo sapiens, UniProt P21397); test: Michaelis–Menten kinetics / mode of inhibition (MAO-Glow, LDS substrate); type: biochemical; conditions: for Alpha parameter (mixed model of enzyme inhibition): GraphPad Prism mixed model; for mode of hMAO-A inhibition: Lineweaver–Burk, alpha analysis; for Vmax of hMAO-A with increasing inhibitor (minimum and maximum average means): inhibitor 0 to IC50 × 4
# T1 construct: purchased Sigma-Aldrich Co. (St. Louis, MO, USA)
# T1 sequence (P21397 1-527): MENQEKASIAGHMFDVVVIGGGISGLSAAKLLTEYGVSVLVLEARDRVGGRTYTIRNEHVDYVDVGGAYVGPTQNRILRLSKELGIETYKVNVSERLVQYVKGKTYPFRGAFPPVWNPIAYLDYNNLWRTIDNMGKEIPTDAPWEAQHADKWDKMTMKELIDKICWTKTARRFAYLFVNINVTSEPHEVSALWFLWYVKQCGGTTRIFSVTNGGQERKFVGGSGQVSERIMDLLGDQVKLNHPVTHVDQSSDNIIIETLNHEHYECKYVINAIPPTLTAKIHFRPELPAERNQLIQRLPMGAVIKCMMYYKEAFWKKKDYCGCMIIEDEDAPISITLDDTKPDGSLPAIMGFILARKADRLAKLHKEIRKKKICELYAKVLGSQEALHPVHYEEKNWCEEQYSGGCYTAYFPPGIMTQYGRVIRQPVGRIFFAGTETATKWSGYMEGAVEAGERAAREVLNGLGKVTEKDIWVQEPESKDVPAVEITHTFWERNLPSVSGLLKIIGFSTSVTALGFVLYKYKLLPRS
# Method: The hMAO-A modes of inhibition by KKR21 and KKR11 were investigated using the Michaelis–Menten reaction kinetics and MAO-Glow™ assay. A negative control buffer and seven serially diluted LDS concentrations were prepared from a maximum final of 75 μM. Other negative control buffers and three different concentrations of each KKR were prepared to resemble IC50/4, IC50, and IC50 × 4 final concentrations (final KKR11 of 0.08, 0.31, and 1.24 μM, and final KKR21 of 0.005, 0.019, and 0.076 μM, respectively). Each KKR was mixed with the isozyme in a 2:1 ratio volume for a final concentration of 0.44 U/mL. The reactions were initiated by adding 37.5 μL of the prepared mixture to 12.5 μL LDS substrate in the 96-well plates. Opaque plates were incubated at 37 °C for 60 min. The enzymatic reaction was terminated by adding 50 μL RLDR to the plates and then was re-incubated for 30 min at RT. The generated ALU was read on the Bio-Tek Synergy HTX Multi-Reader.
# The Vmax and Km were calculated from the averaged X and Y intercepts of Lineweaver–Burk (LWB) linear regressions that were analyzed from the Michaelis–Menten curve data. Vmax = 1/Y-intercept, Km = −1/X-intercept(2)
# Inhibitor-constant (Ki) was calculated from Cheng–Prosuff’s equation Ki (comp) = IC50/(1+[S]/Km)(3)
# PC3 cells = test: Antiproliferation screen assay, resazurin, 72 h; type: cell-based, human; conditions: 50 μM
# LNCaP cells = test: Viability screen assay, resazurin, 24 h; type: cell-based, human; conditions: 50 μM, 90% viability as margin of cytotoxicity
# Method: We examined the cytotoxic effects of all 20 synthesized KKRs on the three human PCa cell lines LNCaP, DU145, and PC3, after a 24 h exposure period. Non-toxic TAX was used for comparison. Briefly, cultured cells were seeded in black transparent bottom 96-well microplates at 50,000 cells/175-µL/well in experimental media (RPMI1640 for LNCaP, EMEM for DU145, and DMEM/F12K for PC3), supplied with 5% FBS and 1% P/S. Wells of media without cells were considered blanks and negative controls. The plates were incubated overnight at 37 °C in 5% CO2 to allow cell attachment. For each compound, a working solution of 8X KKR in sterile […] HEPES in HBSS pH buffer of 7.4 was prepared for a final concentration of 50 μM each. The three attached cell types were treated immediately with the related buffer being added to the control wells. A sterile fluorescence-based solution of the resazurin reagent of 0.5 mg/mL in HBSS was prepared. After 24 h, the cells were exposed to 15% v/v of the sterile resazurin reagent, and the plates were re-incubated for 4.5 h to allow redox reaction. All plates were read under 530/590-nm excitation/emission wavelengths using Bio-Tek Synergy HTX Multi-reader as a microplate fluorescence reader.
# [1] = competitive model, Ki = IC50/(1 + [S]/Km)
SMILES,Ki (hMAO-A; Cheng–Prosuff's equation) [nM],Alpha parameter (mixed model of enzyme inhibition) (hMAO-A),mode of hMAO-A inhibition (hMAO-A),Ki (hMAO-A; [1]) [nM],Vmax of hMAO-A with increasing inhibitor (minimum and maximum average means) (hMAO-A),antiproliferative effect in screen (PC3 cells),cytotoxicity / cell viability (LNCaP cells)
"COc1cc(O)c(C(=O)/C=C/c2ccc(Cl)c(Cl)c2)c(OC)c1 [KKR11, (E)-3-(3,4-dichlorophenyl)-1-(2-hydroxy-4,6-dimethoxyphenyl)prop-2-en-1-one]",≤ 7.4,>>1,reversible competitive inhibition,7.4,3 × 10^−6–4 × 10^−6 U/mL/h,,
"O=c1cc(-c2ccccc2)oc2cc(Cl)c(Cl)cc12 [KKR21, 6,7-dichloro-2-phenyl-4H-chromen-4-one]",≤ 7.4,>>1,reversible competitive inhibition,1.7,1.38 × 10^−6–1.43 × 10^−6 U/mL/h,no effects on any of the screened PCa cell models,
"O=c1c(O)c(-c2ccccc2)oc2c(Cl)cc(Cl)cc12 [KKR7, 6,8-dichloro-3-hydroxy-2-phenyl-4H-chromen-4-one]",,,,,,,affected the LNCaP cells
"COc1cc(OC)c2c(=O)c(O)c(/C=C/c3cc(OC)c(OC)c(OC)c3)oc2c1 [KKR2A, (E)-3-hydroxy-5,7-dimethoxy-2-(3,4,5-trimethoxystyryl)-4H-chromen-4-one]",,,,,,no effects on any of the screened PCa cell models,
